# Assay results taken from patent publication US20260250318A1, “COMPOSITIONS AND METHODS FOR CROSSING THE BLOOD BRAIN BARRIER” (VOYAGER THERAPEUTICS, INC., priority 2022, published 2026).
# Tested on: brain
# Test: Maturation of TTM-001 capsid, NGS enrichment in brain of CD-1 Outbred mice
# Format: in vivo
# Settings: NGS fold-enrichment of TTM-001 matured AAV capsid variants in the brain of CD-1 Outbred mice; intravenous 1.0×10^12 VG/dose; 14 days in life; RNA; relative to non-matured TTM-001 control
# Procedure, shortened: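 Brain enrichment read by NGS after RNA extraction and RT-PCR, expressed as fold ratio over the matching parental capsid (TTM-001 or TTM-002). Libraries, mutated around loop IV positions 449/450–466, were injected intravenously (tail vein, 1.0×10^12 VG/dose) into three female CD-1 mice; brains harvested at 14 days.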
row,Sequence,Fold enrichment over TTM-001 [fold]
1,KTINGSGSPHSKAQQSRT,2.337
2,KTINGSGSPHSKAQRGMT,2.231
3,KTINGSGSPHSKAQRHAT,2.264
4,KTINGSGSPHSKAQRHVT,3.404
5,KTINGSGSPHSKAQRKLT,4.339
6,KTINGSGSPHSKAQRLRT,4.322
7,KTINGSGSPHSKAQRLWT,2.611
8,KTINGSGSPHSKAQRRLT,4.227
9,KTINGSGSPHSKAQRRQT,2.479
10,KTINGSGSPHSKAQRRST,2.993
11,KTINGSGSPHSKAQRSRT,3.585
12,KTINGSGSPHSKAQRWLT,2.788
13,KTINGSGSPHSKAQSHRT,2.084
14,KTINGSGSPHSKAQSLKT,2.110
15,KTINGSGSPHSKAQSRRT,3.372
16,KTINGSGSPHSKAQSSKT,2.078
17,KTINGSGSPHSKAQSSRT,2.575
18,KTINGSGSPHSKAQSVKT,2.464
19,KTINGSGSPHSKAQSWRT,2.596
20,KTINGSGSPHSKAQSYRT,2.088
21,KTINGSGSPHSKAQTART,2.363
22,KTINGSGSPHSKAQTFRT,2.847

row,Sequence,Fold enrichment over TTM-001 [fold]
1,KTINGSGSPHSKAQTGRT,2.371
2,KTINGSGSPHSKAQTMRT,2.453
3,KTINGSGSPHSKAQTNRT,2.510
4,KTINGSGSPHSKAQTSRT,3.421
5,KTINGSGSPHSKAQTTRT,2.385
6,KTINGSGSPHSKAQVCLT,2.182
7,KTINGSGSPHSKAQVKLT,2.564
8,KTINGSGSPHSKAQVLIT,2.317
9,KTINGSGSPHSKAQVSIT,2.028
10,KTINGSGSPHSKAQVSKT,3.406
11,KTINGSGSPHSKAQVTLT,2.179
12,KTINGSGSPHSKAQVVLT,2.438
13,KTINGSGSPHSKAQVWFT,2.181
14,KTINGSGSPHSKAQWLRT,2.795
15,KTINGSGSPHSKAQWSVT,2.501
16,KTINGSGSPHSKAQWVLT,2.052
17,KTINGSGSPHSKAQYCLT,2.628
18,KTINGSGSPHSKAQYRLT,2.088
19,KTINGSGSPHSKAQYYVT,6.283
20,KTINGSGSPHSKARANQT,2.300
21,KTINGSGSPHSKARFSQT,2.253
22,KTINGSGSPHSKARFTQT,2.233

row,Sequence,Fold enrichment over TTM-001 [fold]
1,KTINGSGSPHSKARGIQT,2.140
2,KTINGSGSPHSKARGQQT,2.039
3,KTINGSGSPHSKARGTQT,2.505
4,KTINGSGSPHSKARGVQT,2.181
5,KTINGSGSPHSKARGYQT,2.492
6,KTINGSGSPHSKARIMQT,2.283
7,KTINGSGSPHSKARITQT,2.525
8,KTINGSGSPHSKARIVQT,3.287
9,KTINGSGSPHSKARKLQT,2.458
10,KTINGSGSPHSKARLAQT,2.007
11,KTINGSGSPHSKARLQQT,2.089
12,KTINGSGSPHSKARLRQT,4.155
13,KTINGSGSPHSKARLTQT,2.223
14,KTINGSGSPHSKARLWQT,2.914
15,KTINGSGSPHSKARLYQT,2.201
16,KTINGSGSPHSKARMAQT,2.488
17,KTINGSGSPHSKARMGQT,2.564
18,KTINGSGSPHSKARMQQT,2.184
19,KTINGSGSPHSKARMTQT,2.091
20,KTINGSGSPHSKARNGQT,2.482
21,KTINGSGSPHSKARNKQT,2.108
22,KTINGSGSPHSKARPFQT,2.443

row,Sequence,Fold enrichment over TTM-001 [fold]
1,KTINGSGSPHSKARPYQT,3.050
2,KTINGSGSPHSKARQQQT,2.244
3,KTINGSGSPHSKARRLQT,4.210
4,KTINGSGSPHSKARRQQT,4.218
5,KTINGSGSPHSKARRSQT,3.493
6,KTINGSGSPHSKARSKQT,2.758
7,KTINGSGSPHSKARSRQT,2.972
8,KTINGSGSPHSKARSYQT,2.382
9,KTINGSGSPHSKARTRQT,2.737
10,KTINGSGSPHSKARYSQT,2.369
11,KTINGSGSPHSKARYVQT,2.749
12,KTINGSGSPHSKASCRQT,2.840
13,KTINGSGSPHSKASKNQT,2.171
14,KTINGSGSPHSKASKQQT,2.069
15,KTINGSGSPHSKASKRQT,4.117
16,KTINGSGSPHSKASRGQT,2.182
17,KTINGSGSPHSKASRHQT,2.324
18,KTINGSGSPHSKASRQQT,2.197
19,KTINGSGSPHSKASRRQT,3.577
20,KTINGSGSPHSKATRHQT,2.777
21,KTINGSGSPHSKATRNQT,2.756
22,KTINGSGSPHSKATRQQT,2.505

row,Sequence,Fold enrichment over TTM-001 [fold]
1,KTINGSGSPHSKATRRQT,3.277
2,KTINGSGSPHSKAVRAQT,2.538
3,KTINGSGSPHSKAVRNQT,2.516
4,KTINGSGSPHSKAVRQQT,2.052
5,KTINGSGSPHSKAVWRQT,2.026
6,KTINGSGSPHSKAWILQT,2.004
7,KTINGSGSPHSKAWLIQT,2.499
8,KTINGSGSPHSKAWLLQT,2.240
9,KTINGSGSPHSKAWLMQT,2.015
10,KTINGSGSPHSKAWYPQT,2.406
11,KTINGSGSPHSKAYLRQT,3.356
12,KTINGSGSPHSKCLLQQT,3.374
13,KTINGSGSPHSKCLNQQT,2.594
14,KTINGSGSPHSKCLSQQT,2.052
15,KTINGSGSPHSKCLTQQT,2.644
16,KTINGSGSPHSKCSNQQT,2.020
17,KTINGSGSPHSKCTLQQT,2.808
18,KTINGSGSPHSKEETQQT,2.223
